Measurements published in paper PMC2987581 (Tetrahedron letters, 2010).

Tests used:
[1] = molecular target: aspartic protease BACE1 (Homo sapiens, UniProt P56817); test: aspartic protease inhibition, BACE1; type: biochemical; settings: at concentrations up to 30 μM
[2] = molecular target: T1, trypsin (Bos taurus, UniProt P00760); test: serine protease inhibition screen, trypsin; type: biochemical; settings: at 100 μM, the highest concentration tested
T1 sequence (P00760 24-246): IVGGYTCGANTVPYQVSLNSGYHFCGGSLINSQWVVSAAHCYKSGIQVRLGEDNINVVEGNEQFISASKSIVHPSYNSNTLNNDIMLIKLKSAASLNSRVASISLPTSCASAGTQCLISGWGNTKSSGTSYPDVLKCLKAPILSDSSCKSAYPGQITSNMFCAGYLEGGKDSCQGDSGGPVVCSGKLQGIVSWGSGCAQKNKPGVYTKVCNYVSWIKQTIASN

aspartic protease BACE1, sequence (P56817 46-501): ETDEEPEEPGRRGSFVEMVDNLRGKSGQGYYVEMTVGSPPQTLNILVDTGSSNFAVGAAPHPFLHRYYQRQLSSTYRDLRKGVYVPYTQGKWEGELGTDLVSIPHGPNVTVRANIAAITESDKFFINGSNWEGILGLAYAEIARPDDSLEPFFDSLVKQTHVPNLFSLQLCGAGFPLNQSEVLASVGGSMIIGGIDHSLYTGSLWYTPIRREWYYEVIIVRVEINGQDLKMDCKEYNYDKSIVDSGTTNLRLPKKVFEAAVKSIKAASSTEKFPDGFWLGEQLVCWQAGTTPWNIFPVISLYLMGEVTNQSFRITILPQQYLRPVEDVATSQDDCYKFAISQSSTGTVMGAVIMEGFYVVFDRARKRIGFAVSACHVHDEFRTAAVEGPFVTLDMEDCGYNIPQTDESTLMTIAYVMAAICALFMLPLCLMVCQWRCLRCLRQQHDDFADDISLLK

Compound: C/C=C1\NC(=O)[C@@H](NC(=O)[C@@H](NC(=O)[C@H](C)NC(=O)CCC)C(C)C)[C@@H](C)OC(=O)[C@H](C(C)C)NC(=O)[C@H](Cc2ccc(O)cc2)N(C)C(=O)[C@H](Cc2ccccc2)N2C(=O)[C@H](CC[C@H]2O)NC1=O [Compound 1, Bouillomide A]
- inhibition of BACE1 [1]: does not inhibit
- inhibition of trypsin [2]: no inhibition

Compound: C/C=C1\NC(=O)[C@@H](NC(=O)[C@@H](NC(=O)[C@H](C)NC(=O)CCC)C(C)C)[C@@H](C)OC(=O)[C@H](C(C)C)NC(=O)[C@H](Cc2ccc(O)c(Br)c2)N(C)C(=O)[C@H](Cc2ccccc2)N2C(=O)[C@H](CC[C@H]2O)NC1=O [Compound 2, Bouillomide B]
- inhibition of trypsin [2]: no inhibition
